Reference: PubChem BioAssay (NCI)
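Abbreviation: GI50, concentration required for 50% inhibition of growth. TGI is the concentration that stops growth completely.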

Experiments:
Assay in all cases: inhibition of tumour cell growth, NCI panel, 384-well format
LOX IMVI melanoma = tested on: LOX IMVI melanoma
SF-539 CNS = tested on: SF-539 CNS
HL-60(TB) leukemia = tested on: HL-60(TB) leukemia
MOLT-4 leukemia = tested on: MOLT-4 leukemia
DU-145 prostate = tested on: DU-145 prostate
MCF7 breast = tested on: MCF7 breast
SK-MEL-5 melanoma = tested on: SK-MEL-5 melanoma
BT-549 breast = tested on: BT-549 breast
MDA-MB-468 breast = tested on: MDA-MB-468 breast
HCC-2998 colon = tested on: HCC-2998 colon
M14 melanoma = tested on: M14 melanoma
HOP-62 NSCLC = tested on: HOP-62 NSCLC
PC-3 prostate = tested on: PC-3 prostate
SF-268 CNS = tested on: SF-268 CNS
RXF 393 renal = tested on: RXF 393 renal
UACC-62 melanoma = tested on: UACC-62 melanoma
T-47D breast = tested on: T-47D breast
SF-295 CNS = tested on: SF-295 CNS
OVCAR-8 ovarian = tested on: OVCAR-8 ovarian
TK-10 renal = tested on: TK-10 renal
A549 NSCLC = tested on: A549 NSCLC
MDA-MB-435 melanoma = tested on: MDA-MB-435 melanoma
MDA-MB-231 breast = tested on: MDA-MB-231 breast
IGROV1 ovarian = tested on: IGROV1 ovarian
NCI/ADR-RES ovarian = tested on: NCI/ADR-RES ovarian
NCI-H226 lung = tested on: NCI-H226 lung
SK-OV-3 ovarian = tested on: SK-OV-3 ovarian
OVCAR-4 ovarian = tested on: OVCAR-4 ovarian
SNB-19 CNS = tested on: SNB-19 CNS
HT29 colon = tested on: HT29 colon
SK-MEL-28 melanoma = tested on: SK-MEL-28 melanoma
A498 renal = tested on: A498 renal
OVCAR-3 ovarian = tested on: OVCAR-3 ovarian
HCT-15 colon = tested on: HCT-15 colon
NCI-H322M lung = tested on: NCI-H322M lung
OVCAR-5 ovarian = tested on: OVCAR-5 ovarian
HOP-92 NSCLC = tested on: HOP-92 NSCLC
NCI-H522 lung = tested on: NCI-H522 lung
HS 578T breast = tested on: HS 578T breast
HCT-116 colon = tested on: HCT-116 colon
U251 glioblastoma = tested on: U251 glioblastoma
SR leukemia = tested on: SR leukemia
CAKI-1 renal = tested on: CAKI-1 renal
SN12C renal = tested on: SN12C renal
COLO 205 colon = tested on: COLO 205 colon
NCI-H460 NSCLC = tested on: NCI-H460 NSCLC
UACC-257 melanoma = tested on: UACC-257 melanoma
NCI-H23 lung = tested on: NCI-H23 lung
KM12 colon = tested on: KM12 colon
RPMI-8226 leukemia = tested on: RPMI-8226 leukemia
MALME-3M melanoma = tested on: MALME-3M melanoma
EKVX NSCLC = tested on: EKVX NSCLC
SNB-75 CNS = tested on: SNB-75 CNS
ACHN renal = tested on: ACHN renal

## O=C(Oc1ccc([N+](=O)[O-])cc1)N1CCN(Cc2cccc(Oc3ccccc3)c2)CC1
LOX IMVI melanoma
  GI50: 53.9 µM
  TGI: > 100 µM
SF-539 CNS
  GI50: > 100 µM
  TGI: > 100 µM
HL-60(TB) leukemia
  GI50: 13.2 µM
  TGI: 34.2 µM
MOLT-4 leukemia
  GI50: 41.4 µM
  TGI: > 100 µM
DU-145 prostate
  GI50: > 100 µM
  TGI: > 100 µM
MCF7 breast
  GI50: 31 µM
  TGI: > 100 µM
SK-MEL-5 melanoma
  GI50: 18 µM
  TGI: 55.2 µM
BT-549 breast
  GI50: 67.1 µM
  TGI: > 100 µM
MDA-MB-468 breast
  GI50: 20.6 µM
  TGI: > 100 µM
HCC-2998 colon
  GI50: 47.3 µM
  TGI: > 100 µM
M14 melanoma
  GI50: > 100 µM
  TGI: > 100 µM
HOP-62 NSCLC
  GI50: > 100 µM
  TGI: > 100 µM
PC-3 prostate
  GI50: > 100 µM
  TGI: > 100 µM
SF-268 CNS
  GI50: > 100 µM
  TGI: > 100 µM
RXF 393 renal
  GI50: 48 µM
  TGI: > 100 µM
UACC-62 melanoma
  GI50: > 100 µM
  TGI: > 100 µM
T-47D breast
  GI50: 30.6 µM
  TGI: > 100 µM
SF-295 CNS
  GI50: > 100 µM
  TGI: > 100 µM
OVCAR-8 ovarian
  GI50: > 100 µM
  TGI: > 100 µM
TK-10 renal
  GI50: 46.7 µM
  TGI: > 100 µM
A549 NSCLC
  GI50: > 100 µM
  TGI: > 100 µM
MDA-MB-435 melanoma
  GI50: > 100 µM
  TGI: > 100 µM
MDA-MB-231 breast
  GI50: > 100 µM
  TGI: > 100 µM
IGROV1 ovarian
  GI50: > 100 µM
  TGI: > 100 µM
NCI/ADR-RES ovarian
  GI50: 27.5 µM
  TGI: > 100 µM
NCI-H226 lung
  GI50: > 100 µM
  TGI: > 100 µM
SK-OV-3 ovarian
  GI50: > 100 µM
  TGI: > 100 µM
OVCAR-4 ovarian
  GI50: 30.9 µM
  TGI: > 100 µM
SNB-19 CNS
  GI50: > 100 µM
  TGI: > 100 µM
HT29 colon
  GI50: 51.6 µM
  TGI: > 100 µM
SK-MEL-28 melanoma
  GI50: > 100 µM
  TGI: > 100 µM
A498 renal
  GI50: 42.1 µM
  TGI: > 100 µM
OVCAR-3 ovarian
  GI50: > 100 µM
  TGI: > 100 µM
HCT-15 colon
  GI50: 49.2 µM
  TGI: > 100 µM
NCI-H322M lung
  GI50: 46.2 µM
  TGI: > 100 µM
OVCAR-5 ovarian
  GI50: > 100 µM
  TGI: > 100 µM
HOP-92 NSCLC
  GI50: > 100 µM
  TGI: > 100 µM
NCI-H522 lung
  GI50: 22.9 µM
  TGI: > 100 µM
HS 578T breast
  GI50: 92.3 µM
  TGI: > 100 µM
HCT-116 colon
  GI50: 42.7 µM
  TGI: > 100 µM
U251 glioblastoma
  GI50: > 100 µM
  TGI: > 100 µM
SR leukemia
  GI50: 16.7 µM
  TGI: 32.9 µM
CAKI-1 renal
  GI50: > 100 µM
  TGI: > 100 µM
SN12C renal
  GI50: 33.8 µM
  TGI: > 100 µM
COLO 205 colon
  GI50: > 100 µM
  TGI: > 100 µM
NCI-H460 NSCLC
  GI50: 21.6 µM
  TGI: 59.6 µM
UACC-257 melanoma
  GI50: 23.2 µM
  TGI: > 100 µM
NCI-H23 lung
  GI50: 53.8 µM
  TGI: > 100 µM
KM12 colon
  GI50: 99.3 µM
  TGI: > 100 µM
RPMI-8226 leukemia
  GI50: 25.4 µM
  TGI: > 100 µM
MALME-3M melanoma
  GI50: > 100 µM
  TGI: > 100 µM
EKVX NSCLC
  GI50: 44.1 µM
  TGI: > 100 µM
SNB-75 CNS
  GI50: > 100 µM
  TGI: > 100 µM
ACHN renal
  GI50: > 100 µM
  TGI: > 100 µM
